This is an account of results in patent US20180118588A1, “CONTROL OF BACTERIAL ACTIVITY, SUCH AS IN SEWERS AND WASTEWATER TREATMENT SYSTEMS” (THE UNIVERSITY OF QUEENSLAND, priority 2010, published 2018).

The test system of experiment [1] is methanogenic archaea (MA) in sewer biofilm. To be noted: Exp. IV.
A further experiment has as its system anaerobic sewer biofilms. The experiment is described as follows: Viability tests with biofilms on carriers from rising main sewer reactors (cell killing capacity, Table 2, FIG. 7-9). Type of experiment: cell-based. To be noted: for Inactivation of biofilm cells: agent by itself. As to the method:
In these experiments, viability tests were carried out with biofilms on carriers from rising main sewer reactors. […]

Experiment [2] deals with sulfate reducing bacteria (SRB) in sewer biofilm. As to conditions: Exp. III. The text has this: (§1) Experiment III aimed to achieve complete inhibition on both sulfide and methane production.
A further experiment deals with sewer biofilm cells. As to conditions: Exp. III; FNA dosed in the reactors.
Source text: as §1

The test system of experiment [3] is methanogenic archaea (MA) in sewer biofilm. To be noted: Exp. III.
Source text: as §1

The test system of experiment [4] is sulfate reducing bacteria (SRB) in sewer biofilm. To be noted: Exp. IV.
Experiment [5] has as its system methanogenic archaea (MA) in sewer biofilm. To be noted: Exp. II.
Experiment [6] has as its system sulfate reducing bacteria (SRB) in sewer biofilm. To be noted: Exp. II.
Experiment [7] concerns methanogenic archaea (MA) in sewer biofilm. To be noted: Exp. I.
Experiment [8] deals with sulfate reducing bacteria (SRB) in sewer biofilm. As to conditions: Exp. I.
[9] abbreviates: FNA 0.18 and 0.36 mg-N/L, 24 hours, 4 dosages.
[10] abbreviates: one month after stopping FNA dosage.
Where [11] appears, read: FNA 0.05, 0.08, 0.17 mg-N/L, single dose, 6 hour, pH 6.2.
The mark [12] stands for this setting: in the presence of nitrite, continuous dosing 24 days.
[13] abbreviates: nitrite 20 mg-N/L every 30 minutes for 24 days, pH 8.6~9.2 after dosing.

Molecules are shown by their SMILES. Where two headings read alike, the source gives them in different places.

On to `O=NO` [FNA, free nitrous acid], for which the “Methane production by sewer biofilm” value in experiment [1] (one month after terminating dosage, 828 m downstream vs wet well) is listed as “ceased to produce methane”. In addition, the “Inhibition: methane production” value is “Negligible sulfide” in experiment [1] (real sewer, nitrite 100 mgN/L, pH 6.0, FNA 0.24 mgN/L, 33 hours over three days); “Negligible sulfide” in experiment [3] (setting [9]); “Negligible sulfide” in experiment [5] (setting [11]). For the same compound, in the experiment with anaerobic sewer biofilms, the “Inactivation of biofilm cells” value is on record as “significantly inactivating biofilm cells”. Also, the “Microbial killing, ranking (FIG. 7)” value in the experiment on anaerobic sewer biofilms (nitrite 100 mgN/L, pH 6, FNA 0.26 mgN/L, 6 hr, H2O2 30 mg/L, O2 6 mg/L, caustic pH 10.5 for 2 hr after FNA) was “followed by FNA→Caustic, FNA+O2, and FNA”. Further, the “Inhibition: sulfide production” value in experiment [2] (setting [9]) and in experiment [6] (setting [11]) was “Negligible sulfide” in each case. Further, the figures for the “Recovery SRB” value in experiment [2] (in two months), in experiment [4] (in three weeks) and in experiment [6] (after 1 month) were “SRB: 70-80% in”, “SRB: 100% in” and “SRB: 90%;”, respectively. For the same compound, the SRB recovery entry in experiment [2] (setting [10]) is on record as “about 70%”. For the same compound, the “Cells in the biofilm killed (FIG. 4B)” value with sewer biofilm cells is “over 90%”. For the same compound, the “Recovery MA” value is on record as “MA: 40~60%” in experiment [3] (in two months) and “MA: 30~50%” in experiment [5] (after 1 month). This compound also came in with a Methanogens activity recovery in experiment [3] (setting [10]) of 20%. For the same compound, the Sulfide production result in experiment [4] (Day 14) is recorded as “zero production”. In addition, in experiment [4] (after 7 days), the “Sulfide production, of the initial level” value was found to be 50%. Further, in experiment [5] (all FNA concentrations, 6 hour contact), the “Methane after the FNA dosing” value is reported as “below 20%”. Also, the “Time to recover to 50% (SRB)” value in [6] (R4, highest FNA (0.17 mg-N/L), 6 hour contact) is on record as 16 days.

As for `OO` [H2O2, hydrogen peroxide, reference compound], the “Effect on biocidal effect of acidified nitrite” value in the experiment on anaerobic sewer biofilms (H2O2 30 mg/L with nitrite 100 mgN/L at pH 6, 6 hr) is given as “enhanced the biocidal effect of acidified nitrite”.

With `[Na+].[OH-]` [caustic shock, caustic soda, reference compound], the “Inactivation of biofilm cells” value with anaerobic sewer biofilms is given as “significantly inactivating biofilm cells”.

As to `O=NO` [nitrite], the “Methane accumulation in the reactor” value in experiment [7] (setting [12]) is “No sulfide and methane accumulation”. For the same compound, the “Residual activity after treatment: MA” value in [7] (setting [13]) is recorded as “MA: 0.1 mg- mg-COD/L-hr”. Besides, the “Sulfide accumulation in the reactor” value in [8] (setting [12]) is “No sulfide and methane accumulation”. The “Residual activity after treatment: SRB” value in experiment [8] (setting [13]) is given as “SRB: 1 mg-S/L- mg-S/L-hr”.
